One may read the IC50 as the concentration at which inhibition is half-maximal. A word on the viability, T/C: it is the ratio of treated to control.

The text below walks through data of PubChem BioAssay AID1918936 (Molecular Pharmacology Branch, DTP, NCI, 2023).

This test relates to 349418-098-R-PDC complex spheroid viability. Description: Anticancer human tumor 349418-098-R-PDC patient-derived lung adenocarcinoma cell line growth inhibition. Particulars: for viability, T/C: stronger effect = lower value. The text has this:
Multicellular complex tumor spheroid response to LSD1 Inhibitor Iadademstat in combination with a variety of drugs and investigational agents in selected tumor cell lines
The current study was undertaken to assess response to LSD1 inhibitors in combination with standard-of-care drugs and investigational agents in solid tumor complex spheroid models as well as in the K-562 leukemia. Complex spheroids include a stromal component modeled by human endothelial cells (HUVEC) and fibroblasts modeled by human mesenchymal stem cells (MSCs). The concentration ranges selected for each drug and investigational agent were based upon clinically achievable concentrations if the clinical Cmax of the agent was known.
Compounds. The drugs and investigational agents used in this study are listed on Table 1. All of the agents used, including staurosporine (NSC755774) and gemcitabine (NSC613327), were obtained from the Developmental Therapeutics Program, NCI. FDA-approved anticancer drugs are available from the NCI at http://dtp.nci.nih.gov/branches/dscb/oncology_drugset_explanation.html. Drugs and investigational agents were >95% pure by proton nuclear magnetic resonance (NMR) and liquid chromatography/mass spectrometry (LC/MS). Stock solutions were prepared at 400x in DMSO, stored at -70 degrees C, and diluted in fresh medium prior to their use. The final concentration of DMSO in cell culture wells never exceeded 0.25% (v/v). The FDA-approved anticancer drug set is available from the Developmental Therapeutics Program at https://dtp.cancer.gov/organization/dscb/obtaining/available_plates.htm. All drugs and investigational agents were tested over a range starting from a high concentration at or near the clinical Cmax and decreasing in half-log increments. If the clinical Cmax for an agent had not been determined, the highest concentration tested was 10 microM.
Cell Lines. The patient-derived cancer cell (PDC) lines: 292921-168-R-J2-PDC, K24384-001-R-PDC, and 521955-158-R2-J5-PDC pancreatic carcinomas, 556581-035-R-J1 ovarian carcinoma, 324938-238-R-J1-PDC, 855422-203-R-J1-PDC and 883617-216-R-J1-PDC urothelial bladder carcinomas, 743489-274-T-PDC renal cell carcinoma, 138582-R-J1 Merkel cell tumor, K60290-347-R-J1 and K57222-313-R-J1-PDC glioblastomas, 653999-131-R-J2-PDC, LG0703-F948-PDC, and 349418-098-R-PDC non-small cell lung carcinomas, 885512-296-R-J2-PDC, 171881-019-R-J1-PDC breast carcinomas and 186277-243-T-J2-PDC and 233499-124-R-J2-PDC colon carcinomas were obtained from the NCI Patient-Derived Models Repository (PDMR, https://pdmr.cancer.gov). The established cell lines NCI/ADR-RES (RRID:CVCL_14520 and OVCAR-5 (RRID:CVCL_1628) ovarian carcinomas, 786-O (RRID:CVCL_1051) and A498 (RRID:CVCL_A498) renal cell carcinoma, NCI-H211 (ATCC, cat. CRL-5824; RRID:CVCL_1529), NCI-H196 (ATCC, cat. CRL-5823, RRID:CVCL_1509), SW 1271 (ATCC, cat. CRL-2177, RRID:CVCL_1716) and NCI-H1876 (ATCC, cat. CRL-5902, RRID:CVCL_1503) small cell lung carcinomas, MDA-MB-231 (RRID:CVCL_0062) and MDA-MB-468 (RRID:CVCL_0419)breast carcinomas (10-12). Pooled donor human umbilical vein endothelial cells (HUVEC, Lonza, cat. CC-2519) and human mesenchymal stem cells (hMSC, Lonza, cat. PT-2501) were purchased from Lonza (Walkersville, MD).
Cell Culture. All cells were maintained in an incubator at 37 degrees C and 5% CO2 with 95% humidity. The PDC lines were cultured according to standard operating procedures established by the NCI PDMR (https://pdmr.cancer.gov). Briefly all PDCs were thawed and cultured in Matrigel-coated flasks prepared with a working solution of 1X Ham's F-12 nutrient mix, without supplementation (Invitrogen, Waltham, MA, cat. 11765054), 100 U/mL penicillin-streptomycin (Invitrogen, cat. 15140122), and 2.5% Matrigel (Corning Inc., Corning, NY, cat. 354248) for the first three passages. […]

Where [1] appears, read: curve of first compound, second compound 0.1 µM.
Where [2] appears, read: curve of first compound, second compound 0.316 µM.
Setting [3] is: curve of first compound, second compound 1 µM.
Setting [4] is: curve of first compound, second compound 3.16 µM.
Where [5] appears, read: curve of first compound, second compound 10 µM.

“And” between values parts separate entries of the source, which are not always exact repeats. Equal values may be shown once.
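Further: spheroids exposed to agents for seven days before readout.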

With `Cn1ncnc1C1c2n[nH]c(=O)c3cc(F)cc(c23)NC1c1ccc(F)cc1` (centres undefined) + NC1CCC(NC2CC2c2ccccc2)CC1, the half-maximal inhibitory concentration (IC50) under setting [1] was greater than 100 nM; the IC50 under setting [2] is greater than 100 nM; the IC50 under setting [3] was greater than 100 nM; the IC50 under setting [4] was greater than 100 nM; the IC50 under setting [5] is greater than 100 nM. The viability, T/C reads like this: (second compound 0.1 µM, first compound 0.000316 µM) 101%; (second compound 0.1 µM, first compound 0.001 µM) 96%; (second compound 0.1 µM, first compound 0.00316 µM) 94.8%; (second compound 0.1 µM, first compound 0.01 µM) 95.3%; (second compound 0.1 µM, first compound 0.0316 µM) 106%; (second compound 0.1 µM, first compound 0.1 µM) 92.5%. Besides, the viability, T/C is, setting by setting: (second compound 0.316 µM, first compound 0.000316 µM) 108%; (second compound 0.316 µM, first compound 0.001 µM) 110%; (second compound 0.316 µM, first compound 0.00316 µM) 116%; (second compound 0.316 µM, first compound 0.01 µM) 92.2%; (second compound 0.316 µM, first compound 0.0316 µM) 97.6%; (second compound 0.316 µM, first compound 0.1 µM) 99.5%. The viability, T/C reads like this: (second compound 1 µM, first compound 0.000316 µM) 115%; (second compound 1 µM, first compound 0.001 µM) 112%; (second compound 1 µM, first compound 0.00316 µM) 96.8%; (second compound 1 µM, first compound 0.01 µM) 112%; (second compound 1 µM, first compound 0.0316 µM) 111%; (second compound 1 µM, first compound 0.1 µM) 87%. The viability, T/C was 107% (second compound 3.16 µM, first compound 0.000316 µM); 101% (second compound 3.16 µM, first compound 0.001 µM); 99.4% (second compound 3.16 µM, first compound 0.00316 µM); 98.9% (second compound 3.16 µM, first compound 0.01 µM); 89.7% (second compound 3.16 µM, first compound 0.0316 µM); 85.9% (second compound 3.16 µM, first compound 0.1 µM). Besides, the viability, T/C reads like this: (second compound 10 µM, first compound 0.000316 µM) 94.5%; (second compound 10 µM, first compound 0.001 µM) 91.2%; (second compound 10 µM, first compound 0.00316 µM) 94.6%; (second compound 10 µM, first compound 0.01 µM) 86.8%; (second compound 10 µM, first compound 0.0316 µM) 83.7%; (second compound 10 µM, first compound 0.1 µM) 87.3%.

Turning to `Nc1ncn(C2CC(O)C(CO)S2)c(=O)n1` (centres undefined), the viability, T/C (compound 0.000949 µM) is 104% and 92.4%; the viability, T/C (compound 0.003 µM) was 84% and 91.7%; the viability, T/C (compound 0.00949 µM) is 64.8% and 63.6%; the viability, T/C (compound 0.03 µM) is 33.8% and 29.8%; the viability, T/C (compound 0.0949 µM) is 16.8% and 11.8%; the viability, T/C (compound 0.3 µM) is 8.91% and 5.28%. Also, the half-maximal inhibitory concentration (IC50) (curve of compound) was 15.8 nM and 15.5 nM.

Consider `CCN(c1cc(-c2ccc(CN3CCOCC3)cc2)cc(C(=O)NCc2c(C)cc(C)[nH]c2=O)c1C)C1CCOCC1`, for which the viability, T/C is 91.2% and 96.2% (compound 0.00949 µM); 100% and 97.8% (compound 0.03 µM); 93.4% and 87.5% (compound 0.0949 µM); 91.6% and 50.8% (compound 0.3 µM); 76.7% and 26.2% (compound 0.949 µM); 68.7% and 10% (compound 3 µM). Also, under “curve of compound”, the IC50 was > 3000 nM and 343 nM.

On to `Nc1ncn(C2CC(O)C(CO)S2)c(=O)n1` (centres undefined) + NC1CC1c1ccc(-c2cccc(O)c2)cc1, for which the 50% inhibitory concentration (IC50) is, setting by setting: under setting [1], 25 nM; under setting [2], 23.9 nM; under setting [3], 27.9 nM; under setting [4], 27.1 nM; under setting [5], 19.5 nM. Moreover, the viability, T/C by setting is: (second compound 0.1 µM, first compound 0.000949 µM) 113%; (second compound 0.1 µM, first compound 0.003 µM) 112%; (second compound 0.1 µM, first compound 0.00949 µM) 87.1%; (second compound 0.1 µM, first compound 0.03 µM) 42.6%; (second compound 0.1 µM, first compound 0.0949 µM) 15.4%; (second compound 0.1 µM, first compound 0.3 µM) 5.99%. Besides, the viability, T/C is, setting by setting: (second compound 0.316 µM, first compound 0.000949 µM) 112%; (second compound 0.316 µM, first compound 0.003 µM) 106%; (second compound 0.316 µM, first compound 0.00949 µM) 93%; (second compound 0.316 µM, first compound 0.03 µM) 39%; (second compound 0.316 µM, first compound 0.0949 µM) 12.2%; (second compound 0.316 µM, first compound 0.3 µM) 6.04%. The viability, T/C by setting is: (second compound 1 µM, first compound 0.000949 µM) 117%; (second compound 1 µM, first compound 0.003 µM) 107%; (second compound 1 µM, first compound 0.00949 µM) 96.8%; (second compound 1 µM, first compound 0.03 µM) 46.3%; (second compound 1 µM, first compound 0.0949 µM) 13.5%; (second compound 1 µM, first compound 0.3 µM) 5.81%. The viability, T/C reads like this: (second compound 3.16 µM, first compound 0.000949 µM) 115%; (second compound 3.16 µM, first compound 0.003 µM) 115%; (second compound 3.16 µM, first compound 0.00949 µM) 96.3%; (second compound 3.16 µM, first compound 0.03 µM) 44.6%; (second compound 3.16 µM, first compound 0.0949 µM) 17.3%; (second compound 3.16 µM, first compound 0.3 µM) 6.89%. The viability, T/C (second compound 10 µM, first compound 0.000949 µM) is 87.2%; the viability, T/C (second compound 10 µM, first compound 0.003 µM) was 81.6%; the viability, T/C (second compound 10 µM, first compound 0.00949 µM) is 75.4%; the viability, T/C (second compound 10 µM, first compound 0.03 µM) was 34.5%; the viability, T/C (second compound 10 µM, first compound 0.0949 µM) is 14.5%; the viability, T/C (second compound 10 µM, first compound 0.3 µM) is 5.54%.
